Measurements reported in patent US10414811B2, “Protease-resistant lipidated GLP-1 analogs” (MEDIMMUNE LIMITED, priority 2015, dated 2019).
Where two headings read alike, the source gives them in different places. Numbered stars: 1 amine (or outer) side, 2 acyl side, 3 side chain; on linkers, the order of the positions; unused ones are H or OH. Square brackets hold non-standard residues; d marks the D form. Side chains are listed from the residue outwards. Peptide text beside a SMILES is read from it. * marks the point of attachment. C18 diacid = O=C(O)CCCCCCCCCCCCCCCCC(=O)*; γGlu = O=C(O)[C@H](CCC(=O)[*:2])N[*:1]; Palmitoyl = CCCCCCCCCCCCCCCC(=O)*; αMeF = C[C@](N)(Cc1ccccc1)C(=O)O; αMeK = C[C@](N)(CCCCN)C(=O)O; αMeS = C[C@](N)(CO)C(=O)O; AEEA = NCCOCCOCC(=O)O; Aib = CC(C)(N)C(=O)O

Assays:
Type in all cases: cell-based
[1] = target: T1, human GLP-1 receptor (GLP-1R) (Homo sapiens, UniProt P43220); assay: cAMP assay, human GLP-1R cells
T1 construct: expressed in transfected cells
Summary of the method: (§1)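 Peptide-stimulated cAMP measured by two-step HTRF after a 30 min room-temperature incubation with receptor-expressing cells (hGLP-1R, hGIPR at 1×10^5 cells/ml; hGCGR at 2×10^5 cells/ml). Duplicate dilutions; EC50 from 4-parameter logistic fit of % Delta F.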

[2] = target: T2, human glucagon receptor (GCGR) (Homo sapiens, UniProt P47871); assay: cAMP assay, human GCGR cells; conditions: cAMP assay
T2 construct: expressed in transfected cells
Summary of the method: as §1

GLP-1R (INS1e assay) = target: T3, GLP-1R (INS1e assay) (Rattus norvegicus, UniProt P32301); assay: INS1e assay, cAMP activity at GLP-1R; conditions: mono-lipidated peptides
T3 construct: endogenous in cells; host or cells: INS-1E cells
T3 sequence (P32301 22-463): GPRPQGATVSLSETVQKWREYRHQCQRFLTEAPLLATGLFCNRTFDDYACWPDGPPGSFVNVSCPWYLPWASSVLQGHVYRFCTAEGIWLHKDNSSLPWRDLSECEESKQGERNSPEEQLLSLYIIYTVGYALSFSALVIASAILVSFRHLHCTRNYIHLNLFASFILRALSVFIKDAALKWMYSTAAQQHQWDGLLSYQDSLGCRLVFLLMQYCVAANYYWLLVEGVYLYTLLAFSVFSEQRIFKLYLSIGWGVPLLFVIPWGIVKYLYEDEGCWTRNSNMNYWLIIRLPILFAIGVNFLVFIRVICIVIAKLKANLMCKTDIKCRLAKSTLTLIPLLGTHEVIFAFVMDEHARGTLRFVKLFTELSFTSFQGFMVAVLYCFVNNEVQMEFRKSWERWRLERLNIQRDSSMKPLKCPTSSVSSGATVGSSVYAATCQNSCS
Summary of the method: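 cAMP was quantified by two-step HTRF, using anti-cAMP cryptate donor and cAMP-d2 acceptor, each diluted 1/20 in conjugate and lysis buffer. EC50 values of the synthetic peptides were derived from the cAMP readout.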

[3] = target: T4, human glucose-dependent insulinotropic peptide receptor (GIPR) (Homo sapiens, UniProt P48546); assay: cAMP assay, human GIPR cells; conditions: cAMP assay
T4 construct: expressed in transfected cells
T4 sequence (P48546 22-466): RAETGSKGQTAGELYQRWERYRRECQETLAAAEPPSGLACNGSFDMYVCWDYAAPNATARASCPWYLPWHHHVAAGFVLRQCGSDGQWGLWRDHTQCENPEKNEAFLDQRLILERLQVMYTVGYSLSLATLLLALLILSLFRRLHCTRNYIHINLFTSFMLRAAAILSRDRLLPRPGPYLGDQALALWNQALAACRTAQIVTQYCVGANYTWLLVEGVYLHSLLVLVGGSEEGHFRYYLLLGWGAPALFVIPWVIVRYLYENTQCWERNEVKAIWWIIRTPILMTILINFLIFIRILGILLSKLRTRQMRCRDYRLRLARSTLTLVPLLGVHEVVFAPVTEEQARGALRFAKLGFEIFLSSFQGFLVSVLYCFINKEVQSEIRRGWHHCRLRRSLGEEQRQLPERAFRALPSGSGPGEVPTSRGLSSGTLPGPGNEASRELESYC
Summary of the method: as §1

[4] = cAMP assay, first determination (n1), read-out: Primary assay EC50 GLP-1R n1
[5] = cAMP assay, second determination (n2), read-out: Primary assay EC50 GLP-1R n2
[6] = mean of n1 and n2, read-out: Mean pM GLP-1R
[7] = first determination (n1), read-out: Primary assay EC50 Gluc-R (n1)
[8] = second determination (n2), read-out: Primary assay EC50 Gluc-R (n2)
[9] = mean of n1 and n2, read-out: INS1e assay EC50 Mean pM GLP-1R
[10] = replicate n1, read-out: INS1e assay EC50 GLP-1R n1
[11] = replicate n2, read-out: INS1e assay EC50 GLP-1R n2
[12] = first determination (n1), read-out: Primary assay EC50 GIP-R (n1)
[13] = second determination (n2), read-out: Primary assay EC50 GIP-R (n2)

T1 sequence (P43220 24-463): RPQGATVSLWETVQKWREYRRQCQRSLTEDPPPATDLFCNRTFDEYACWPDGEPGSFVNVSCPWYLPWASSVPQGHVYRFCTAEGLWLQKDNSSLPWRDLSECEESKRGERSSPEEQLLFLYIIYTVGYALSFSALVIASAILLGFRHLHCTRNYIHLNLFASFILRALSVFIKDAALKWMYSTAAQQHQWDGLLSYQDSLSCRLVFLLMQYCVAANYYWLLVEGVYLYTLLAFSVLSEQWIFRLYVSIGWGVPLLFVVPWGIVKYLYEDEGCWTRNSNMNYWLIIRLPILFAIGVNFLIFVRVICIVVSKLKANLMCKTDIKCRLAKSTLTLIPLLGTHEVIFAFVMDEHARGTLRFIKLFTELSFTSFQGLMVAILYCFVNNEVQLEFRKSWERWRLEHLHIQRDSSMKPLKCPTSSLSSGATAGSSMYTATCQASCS
T2 sequence (P47871 26-477): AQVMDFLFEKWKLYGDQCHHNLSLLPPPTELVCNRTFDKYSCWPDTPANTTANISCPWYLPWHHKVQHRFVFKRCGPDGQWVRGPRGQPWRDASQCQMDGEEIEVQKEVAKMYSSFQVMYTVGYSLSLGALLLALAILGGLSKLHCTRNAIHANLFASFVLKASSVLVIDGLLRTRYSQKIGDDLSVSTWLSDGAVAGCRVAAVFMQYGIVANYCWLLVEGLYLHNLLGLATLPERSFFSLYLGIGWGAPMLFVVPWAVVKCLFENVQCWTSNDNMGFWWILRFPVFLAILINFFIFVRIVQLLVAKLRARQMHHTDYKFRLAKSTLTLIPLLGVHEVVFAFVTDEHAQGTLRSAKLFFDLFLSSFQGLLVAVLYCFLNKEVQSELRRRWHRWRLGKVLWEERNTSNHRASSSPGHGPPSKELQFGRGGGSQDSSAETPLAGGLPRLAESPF

Compound | EC50 [1, 4] [pM] | EC50 [1, 5] [pM] | EC50 [1, 6] [pM] | EC50 [2, 7] [nM] | EC50 [2, 8] [nM] | EC50 (GLP-1R (INS1e assay); [9]) [pM] | EC50 (GLP-1R (INS1e assay); [10]) [pM] | EC50 (GLP-1R (INS1e assay); [11]) [pM] | EC50 [3, 12] [nM] | EC50 [3, 13] [nM]
CC[C@H](C)[C@H](NC(=O)[C@H](Cc1ccccc1)NC(=O)[C@H](CCC(=O)O)NC(=O)[C@H](CCC(=O)O)NC(=O)[C@H](C)NC(=O)[C@H](C)NC(=O)[C@H](CCC(=O)O)NC(=O)CNC(=O)[C@H](CCC(=O)O)NC(=O)[C@H](CC(C)C)NC(=O)[C@](C)(Cc1ccccc1)NC(=O)[C@H](CO)NC(=O)[C@](C)(CO)NC(=O)[C@@H](NC(=O)[C@H](CC(=O)O)NC(=O)[C@H](CO)NC(=O)[C@@H](NC(=O)[C@](C)(Cc1ccccc1)NC(=O)[C@H](CO)NC(=O)CNC(=O)[C@H](CCC(=O)O)NC(=O)C(C)(C)NC(=O)[C@@H](N)Cc1c[nH]cn1)[C@@H](C)O)C(C)C)C(=O)N[C@@H](CCCCNC(=O)COCCOCCNC(=O)COCCOCCNC(=O)CC[C@H](NC(=O)CCCCCCCCCCCCCCCCC(=O)O)C(=O)O)C(=O)N[C@@H](Cc1c[nH]c2ccccc12)C(=O)N[C@H](C(=O)N[C@H](C(=O)N[C@@H](CCC(=O)O)C(=O)NCC(=O)NCC(N)=O)C(C)C)C(C)C [compound 66] (H-H[Aib]EGS[αMeF]TSDV[αMeS]S[αMeF]LEGEAAEEFIK([AEEA-AEEA-γGlu-C18 diacid])WVVEGG-NH2; N-terminus assumed) | 203 | 97.9 | 150 | ≥ 25.1 | ≥ 25.1 | 42200 | 45600 | 38800 | ≥ 25.1 | ≥ 25.1
CC[C@H](C)[C@H](NC(=O)[C@H](Cc1ccccc1)NC(=O)[C@H](CCC(=O)O)NC(=O)C(C)(C)NC(=O)[C@H](C)NC(=O)[C@H](C)NC(=O)[C@H](CCC(=O)O)NC(=O)CNC(=O)[C@H](CCC(=O)O)NC(=O)[C@H](CC(C)C)NC(=O)[C@](C)(Cc1ccccc1)NC(=O)[C@H](CO)NC(=O)[C@](C)(CO)NC(=O)[C@@H](NC(=O)[C@H](CC(=O)O)NC(=O)[C@H](CO)NC(=O)[C@@H](NC(=O)[C@](C)(Cc1ccccc1)NC(=O)[C@H](CO)NC(=O)CNC(=O)[C@H](CCC(=O)O)NC(=O)C(C)(C)NC(=O)[C@@H](N)Cc1c[nH]cn1)[C@@H](C)O)C(C)C)C(=O)N[C@@H](CCCCNC(=O)COCCOCCNC(=O)COCCOCCNC(=O)CC[C@H](NC(=O)CCCCCCCCCCCCCCCCC(=O)O)C(=O)O)C(=O)N[C@@H](Cc1c[nH]c2ccccc12)C(=O)N[C@H](C(=O)N[C@H](C(=O)N[C@@H](CCC(=O)O)C(=O)NCC(=O)NCC(N)=O)C(C)C)C(C)C [compound 67] (H-H[Aib]EGS[αMeF]TSDV[αMeS]S[αMeF]LEGEAA[Aib]EFIK([AEEA-AEEA-γGlu-C18 diacid])WVVEGG-NH2; N-terminus assumed) | 72.1 | 48 | 60.1 | ≥ 25.4 | ≥ 25.4 | 12100 | 6150 | 18100 | ≥ 25.4 | ≥ 25.4
CC[C@H](C)[C@H](NC(=O)[C@H](Cc1ccccc1)NC(=O)[C@H](CCC(=O)O)NC(=O)[C@H](C)NC(=O)[C@H](C)NC(=O)[C@H](C)NC(=O)[C@H](CCC(=O)O)NC(=O)CNC(=O)[C@H](CCC(=O)O)NC(=O)[C@H](CC(C)C)NC(=O)[C@](C)(Cc1ccccc1)NC(=O)[C@H](CO)NC(=O)[C@](C)(CO)NC(=O)[C@@H](NC(=O)[C@H](CC(=O)O)NC(=O)[C@H](CO)NC(=O)[C@@H](NC(=O)[C@](C)(Cc1ccccc1)NC(=O)[C@H](CO)NC(=O)CNC(=O)[C@H](CCC(=O)O)NC(=O)C(C)(C)NC(=O)[C@@H](N)Cc1c[nH]cn1)[C@@H](C)O)C(C)C)C(=O)N[C@@H](CCCCNC(=O)COCCOCCNC(=O)COCCOCCNC(=O)CC[C@H](NC(=O)CCCCCCCCCCCCCCCCC(=O)O)C(=O)O)C(=O)N[C@@H](Cc1c[nH]c2ccccc12)C(=O)N[C@H](C(=O)N[C@H](C(=O)N[C@@H](CCC(=O)O)C(=O)NCC(=O)NCC(N)=O)C(C)C)C(C)C [compound 69] (H-H[Aib]EGS[αMeF]TSDV[αMeS]S[αMeF]LEGEAAAEFIK([AEEA-AEEA-γGlu-C18 diacid])WVVEGG-NH2; N-terminus assumed) | 66.1 | 39.9 | 53 | ≥ 25.5 | ≥ 25.5 | 22100 | 19200 | 25000 | ≥ 25.5 | ≥ 25.5
CCCCCCCCCCCCCCCC(=O)N[C@@H](CCC(=O)NCCCC[C@H](NC(=O)[C@](C)(CCCCN)NC(=O)[C@@H](NC(=O)[C@@H](NC(=O)[C@](C)(Cc1ccccc1)NC(=O)[C@H](C)NC(=O)[C@@H](NC(=O)[C@](C)(Cc1ccccc1)NC(=O)[C@H](CCC(=O)O)NC(=O)[C@](C)(CCCCN)NC(=O)[C@H](C)NC(=O)[C@H](C)NC(=O)[C@H](CCC(=O)O)NC(=O)CNC(=O)[C@H](CCC(=O)O)NC(=O)[C@H](CC(C)C)NC(=O)[C@](C)(Cc1ccccc1)NC(=O)[C@H](CO)NC(=O)[C@](C)(CO)NC(=O)[C@@H](NC(=O)[C@H](CC(=O)O)NC(=O)[C@H](CO)NC(=O)[C@@H](NC(=O)[C@](C)(Cc1ccccc1)NC(=O)[C@H](CO)NC(=O)CNC(=O)[C@H](CCC(=O)O)NC(=O)C(C)(C)NC(=O)[C@@H](N)Cc1c[nH]cn1)[C@@H](C)O)C(C)C)[C@@H](C)CC)C(C)C)C(C)C)C(=O)NCC(N)=O)C(=O)O [compound 71] (H-H[Aib]EGS[αMeF]TSDV[αMeS]S[αMeF]LEGEAA[αMeK]E[αMeF]IA[αMeF]VV[αMeK]K([γGlu-Palmitoyl])G-NH2) | 6.2 | 8 | 7.1 | ≥ 27 | ≥ 27 | 723 | 604 | 841 | ≥ 27 | ≥ 27
CCCCCCCCCCCCCCCC(=O)N[C@@H](CCC(=O)NCCCC[C@H](NC(=O)[C@@H](NC(=O)[C@@H](NC(=O)[C@](C)(Cc1ccccc1)NC(=O)[C@H](C)NC(=O)[C@@H](NC(=O)[C@](C)(Cc1ccccc1)NC(=O)[C@H](CCC(=O)O)NC(=O)[C@](C)(CCCCN)NC(=O)[C@H](C)NC(=O)[C@H](C)NC(=O)[C@H](CCC(=O)O)NC(=O)CNC(=O)[C@H](CCC(=O)O)NC(=O)[C@H](CC(C)C)NC(=O)[C@](C)(Cc1ccccc1)NC(=O)[C@H](CO)NC(=O)[C@](C)(CO)NC(=O)[C@@H](NC(=O)[C@H](CC(=O)O)NC(=O)[C@H](CO)NC(=O)[C@@H](NC(=O)[C@](C)(Cc1ccccc1)NC(=O)[C@H](CO)NC(=O)CNC(=O)[C@H](CCC(=O)O)NC(=O)C(C)(C)NC(=O)[C@@H](N)Cc1c[nH]cn1)[C@@H](C)O)C(C)C)[C@@H](C)CC)C(C)C)C(C)C)C(=O)NCC(=O)NCC(N)=O)C(=O)O [compound 72] | 46 | 52 | 49 | ≥ 28 | ≥ 28 | 6160 | 4260 | 8070 | ≥ 28 | ≥ 28
